Target: T1, STAT6 protein (Homo sapiens, UniProt P42226)
T1 sequence (P42226 1-847): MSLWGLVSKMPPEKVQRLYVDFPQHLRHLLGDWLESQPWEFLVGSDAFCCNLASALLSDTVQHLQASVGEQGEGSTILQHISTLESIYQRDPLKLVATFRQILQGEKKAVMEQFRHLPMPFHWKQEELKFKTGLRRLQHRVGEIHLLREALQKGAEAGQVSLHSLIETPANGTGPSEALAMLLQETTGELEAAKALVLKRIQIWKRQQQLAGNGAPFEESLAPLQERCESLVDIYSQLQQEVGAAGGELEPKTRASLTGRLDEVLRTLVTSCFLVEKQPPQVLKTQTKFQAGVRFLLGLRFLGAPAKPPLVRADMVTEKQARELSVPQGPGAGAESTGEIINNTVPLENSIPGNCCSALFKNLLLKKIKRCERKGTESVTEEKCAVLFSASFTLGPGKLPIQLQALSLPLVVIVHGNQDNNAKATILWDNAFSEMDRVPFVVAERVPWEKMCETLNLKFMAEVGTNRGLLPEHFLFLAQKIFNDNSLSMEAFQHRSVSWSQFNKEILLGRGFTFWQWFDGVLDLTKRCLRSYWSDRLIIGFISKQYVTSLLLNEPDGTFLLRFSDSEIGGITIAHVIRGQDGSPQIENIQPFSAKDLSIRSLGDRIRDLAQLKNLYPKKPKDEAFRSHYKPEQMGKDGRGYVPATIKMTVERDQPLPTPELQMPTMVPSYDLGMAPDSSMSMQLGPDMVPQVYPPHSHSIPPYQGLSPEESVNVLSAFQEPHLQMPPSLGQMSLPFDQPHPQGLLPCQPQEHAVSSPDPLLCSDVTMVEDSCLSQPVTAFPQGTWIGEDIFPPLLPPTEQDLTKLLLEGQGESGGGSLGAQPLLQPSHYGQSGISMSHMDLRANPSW
Assay: Fluorescence polarization (FP) binding assay, STAT6
Conditions: FP competition, 5 nM fluorescein-labeled tracer, 200 nM protein, PBS pH7.4; read-out: Binding STAT6
Method: Evaluation of the activity of the inhibitors may be accomplished by fluorescence polarization (FP) experiments. A representative general protocol is the following:
Fluorescence polarization (FP) experiments are performed in black round-bottom plates using the CLARIOstar microplate reader. To each well, fluorescein-labeled tracer and STAT5 or STAT6 protein are added in assay buffer. […] The inhibition constants are determined as the concentration of the STAT5 or STAT6 at which 50% of the ligand is bound.
Fluorescence polarization (FP) experiments were performed in 96-well, black round-bottom plates (Microfluor 2, Fisher Scientific) using the CLARIOstar microplate reader (BMG Labtech). To each well, 5 nM of fluoresceinlabeled tracer and 200 nM of STAT5 and/or STAT6 protein were added to a final volume of 100 μl in the assay buffer (PBS pH7.4+0.01% BGG+0.01% Tween-20, 2 mM DTT). The plate was mixed on a shaker for 15 m and incubated at room temperature for 1 h to reach equilibrium. […] All experimental data were analyzed using Prism 8.0 software (GraphPad Software), and the inhibition constants were determined by nonlinear curve fitting as the concentration of the STAT5 and/or STAT6 at which 50% of the ligand is bound.

Compared with `CC(C)(C)[C@H](NC(=O)c1cc2cc(C(F)(F)P(=O)(O)O)ccc2s1)C(=O)N1Cc2ccccc2C[C@H]1C(=O)N1CCCOC(c2ccccc2)C1` (stereo partly drawn) [Compound 220, ((2-(((2S)-3,3-dimethyl-1-oxo-1-((3S)-3-(2-phenyl-1,4-oxazepane-4-carbonyl)-3,4-dihydroisoquinolin-2(1H)-yl)butan-2-yl)carbamoyl)benzo[b]thiophen-5-yl)difluoromethyl)phosphonic acid], `CC(C)(C)[C@H](NC(=O)c1cc2cc(C(F)(F)P(=O)(O)O)ccc2s1)C(=O)N1Cc2ccccc2C[C@H]1C(=O)N1CCSC(c2ccccc2)C1` (stereo partly drawn) [Compound 223, ((2-(((2S)-3,3-dimethyl-1-oxo-1-((3S)-3-(2-phenylthiomorpholine-4-carbonyl)-3,4-dihydroisoquinolin-2(1H)-yl)butan-2-yl)carbamoyl)benzo[b]thiophen-5-yl)difluoromethyl)phosphonic acid] is lower in Ki: 0.1 to 1 µM for the first, less than 0.1 µM for the second. The second binds more tightly here.

`CC(C)(C)[C@H](NC(=O)c1cc2cc(C(F)(F)P(=O)(O)O)ccc2s1)C(=O)N1Cc2ccccc2C[C@H]1C(=O)N1CCOC(Cc2ccccc2)C1` (stereo partly drawn) [Compound 221, ((2-(((2S)-1-((3S)-3-(2-benzylmorpholine-4-carbonyl)-3,4-dihydroisoquinolin-2(1H)-yl)-3,3-dimethyl-1-oxobutan-2-yl)carbamoyl)benzo[b]thiophen-5-yl)difluoromethyl)phosphonic acid] and `Cc1ccccc1C1CN(C(=O)[C@@H]2Cc3ccccc3CN2C(=O)[C@@H](NC(=O)c2cc3cc(C(F)(F)P(=O)(O)O)ccc3s2)C(C)(C)C)CCO1` (stereo partly drawn) [Compound 228, ((2-(((2S)-3,3-dimethyl-1-oxo-1-((3S)-3-(2-(o-tolyl)morpholine-4-carbonyl)-3,4-dihydroisoquinolin-2(1H)-yl)butan-2-yl)carbamoyl)benzo[b]thiophen-5-yl)difluoromethyl)phosphonic acid] fall in the same range of Ki: 0.1 to 1 µM for the first, 0.1 to 1 µM for the second.

`CC(C)(C)[C@H](NC(=O)c1cc2cc(C(F)(F)P(=O)(O)O)ccc2s1)C(=O)N1Cc2ccccc2C[C@H]1C(=O)N1CCOC(C2CCCCC2)C1` (stereo partly drawn) [Compound 222, ((2-(((2S)-1-((3S)-3-(2-cyclohexylmorpholine-4-carbonyl)-3,4-dihydroisoquinolin-2(1H)-yl)-3,3-dimethyl-1-oxobutan-2-yl)carbamoyl)benzo[b]thiophen-5-yl)difluoromethyl)phosphonic acid] and `CC(C)(C)[C@H](NC(=O)c1cc2cc(C(F)(F)P(=O)(O)O)ccc2s1)C(=O)N1Cc2ccccc2C[C@H]1C(=O)N1CCOC(c2ccccc2F)C1` (stereo partly drawn) [Compound 230, (difluoro(2-(((2S)-1-((3S)-3-(2-(2-fluorophenyl)morpholine-4-carbonyl)-3,4-dihydroisoquinolin-2(1H)-yl)-3,3-dimethyl-1-oxobutan-2-yl)carbamoyl)benzo[b]thiophen-5-yl)methyl)phosphonic acid] fall in the same range of Ki: 0.1 to 1 µM for the first, 0.1 to 1 µM for the second.

First: CC(C)(C)[C@H](NC(=O)c1cc2cc(C(F)(F)P(=O)(O)O)ccc2s1)C(=O)N1Cc2ccccc2C[C@H]1C(=O)N1CCS(=O)(=O)[C@H](c2ccccc2)C1 [Compound 224, ((2-(((S)-1-((S)-3-((R)-1,1-dioxido-2-phenylthiomorpholine-4-carbonyl)-3,4-dihydroisoquinolin-2(1H)-yl)-3,3-dimethyl-1-oxobutan-2-yl)carbamoyl)benzo[b]thiophen-5-yl)difluoromethyl)phosphonic acid]
Second: CC(C)(C)[C@H](NC(=O)c1cc2cc(C(F)(F)P(=O)(O)O)ccc2s1)C(=O)N1Cc2ccccc2C[C@H]1C(=O)N1CCS(=O)(=O)[C@@H](c2ccccc2)C1 [Compound 225, ((2-(((S)-1-((S)-3-((S)-1,1-dioxido-2-phenylthiomorpholine-4-carbonyl)-3,4-dihydroisoquinolin-2(1H)-yl)-3,3-dimethyl-1-oxobutan-2-yl)carbamoyl)benzo[b]thiophen-5-yl)difluoromethyl)phosphonic acid]
The Ki of the first is lower: less than 0.1 µM for the first, 0.1 to 1 µM for the second. The first binds more tightly here.

`CC1CN(C(=O)[C@@H]2Cc3ccccc3CN2C(=O)[C@@H](NC(=O)c2cc3cc(C(F)(F)P(=O)(O)O)ccc3s2)C(C)(C)C)CC(c2ccccc2)O1` (stereo partly drawn) [Compound 226, ((2-(((2S)-3,3-dimethyl-1-((3S)-3-(2-methyl-6-phenylmorpholine-4-carbonyl)-3,4-dihydroisoquinolin-2(1H)-yl)-1-oxobutan-2-yl)carbamoyl)benzo[b]thiophen-5-yl)difluoromethyl)phosphonic acid] and `CC(C)(C)[C@H](NC(=O)c1cc2cc(C(F)(F)P(=O)(O)O)ccc2s1)C(=O)N1Cc2ccccc2C[C@H]1C(=O)N1CCOC(c2ccccc2Cl)C1` (stereo partly drawn) [Compound 232, ((2-(((2S)-1-((3S)-3-(2-(2-chlorophenyl)morpholine-4-carbonyl)-3,4-dihydroisoquinolin-2(1H)-yl)-3,3-dimethyl-1-oxobutan-2-yl)carbamoyl)benzo[b]thiophen-5-yl)difluoromethyl)phosphonic acid] fall in the same range of Ki: 0.1 to 1 µM for the first, 0.1 to 1 µM for the second.

Compared with `CC(C)(C)[C@H](NC(=O)c1cc2cc(C(F)(F)P(=O)(O)O)ccc2s1)C(=O)N1Cc2ccccc2C[C@H]1C(=O)N1CCOC(c2cccc3ccccc23)C1` (stereo partly drawn) [Compound 227, ((2-(((2S)-3,3-dimethyl-1-((3S)-3-(2-(naphthalen-1-yl)morpholine-4-carbonyl)-3,4-dihydroisoquinolin-2(1H)-yl)-1-oxobutan-2-yl)carbamoyl)benzo[b]thiophen-5-yl)difluoromethyl)phosphonic acid], `Cc1ccc(C2CN(C(=O)[C@@H]3Cc4ccccc4CN3C(=O)[C@@H](NC(=O)c3cc4cc(C(F)(F)P(=O)(O)O)ccc4s3)C(C)(C)C)CCO2)c(C)c1` (stereo partly drawn) [Compound 229, ((2-(((2S)-1-((3S)-3-(2-(2,4-dimethylphenyl)morpholine-4-carbonyl)-3,4-dihydroisoquinolin-2(1H)-yl)-3,3-dimethyl-1-oxobutan-2-yl)carbamoyl)benzo[b]thiophen-5-yl)difluoromethyl)phosphonic acid] is higher in Ki: 0.1 to 1 µM for the first, 1 to 10 µM for the second. The first binds more tightly here.

`CC(C)(C)[C@H](NC(=O)c1cc2cc(C(F)(F)P(=O)(O)O)ccc2s1)C(=O)N1Cc2ccccc2C[C@H]1C(=O)N1CCOC(c2ccc(F)cc2)C1` (stereo partly drawn) [Compound 231, (difluoro(2-(((2S)-1-((3S)-3-(2-(4-fluorophenyl)morpholine-4-carbonyl)-3,4-dihydroisoquinolin-2(1H)-yl)-3,3-dimethyl-1-oxobutan-2-yl)carbamoyl)benzo[b]thiophen-5-yl)methyl)phosphonic acid] and `CC(C)(C)[C@H](NC(=O)c1cc2cc(C(F)(F)P(=O)(O)O)ccc2s1)C(=O)N1Cc2ccccc2C[C@H]1C(=O)N1CCOC(c2ccc(Cl)cc2)C1` (stereo partly drawn) [Compound 234, ((2-(((2S)-1-((3S)-3-(2-(4-chlorophenyl)morpholine-4-carbonyl)-3,4-dihydroisoquinolin-2(1H)-yl)-3,3-dimethyl-1-oxobutan-2-yl)carbamoyl)benzo[b]thiophen-5-yl)difluoromethyl)phosphonic acid] fall in the same range of Ki: 0.1 to 1 µM for the first, 0.1 to 1 µM for the second.

First: CC(C)(C)[C@H](NC(=O)c1cc2cc(C(F)(F)P(=O)(O)O)ccc2s1)C(=O)N1Cc2ccccc2C[C@H]1C(=O)N1CCOC(c2cccc(Cl)c2)C1 (stereo partly drawn) [Compound 233, ((2-(((2S)-1-((3S)-3-(2-(3-chlorophenyl)morpholine-4-carbonyl)-3,4-dihydroisoquinolin-2(1H)-yl)-3,3-dimethyl-1-oxobutan-2-yl)carbamoyl)benzo[b]thiophen-5-yl)difluoromethyl)phosphonic acid]
Second: CC1(c2ccc(Cl)cc2)CN(C(=O)[C@@H]2Cc3ccccc3CN2C(=O)[C@@H](NC(=O)c2cc3cc(C(F)(F)P(=O)(O)O)ccc3s2)C(C)(C)C)CCO1 (stereo partly drawn) [Compound 235, ((2-(((2S)-1-((3S)-3-(2-(4-chlorophenyl)-2-methylmorpholine-4-carbonyl)-3,4-dihydroisoquinolin-2(1H)-yl)-3,3-dimethyl-1-oxobutan-2-yl)carbamoyl)benzo[b]thiophen-5-yl)difluoromethyl)phosphonic acid]
The Ki of the first is lower: less than 0.1 µM for the first, 1 to 10 µM for the second. The first binds more tightly here.

From patent publication US20230295200A1 (REGENTS OF THE UNIVERSITY OF MICHIGAN, priority 2022, published 2023)
